Laboratory results: patent US12037339B2, “Substituted imidazoles as GLP-1 receptor agonists” (Eccogene Inc., priority 2020, dated 2024)

These compounds were tested against (Homo sapiens, UniProt P43220) (assay: h-GLP-1 activity assay (cAMP HTRF, HEK293 cells with stable expression of human GLP-1)). Conditions: relative EC50, 10 nM human GLP-1 set as 100% response, 30 min at 37° C.
Format: cell-based
Summary of the method: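 HEK293 cells stably expressing human GLP-1 receptor construct exposed to compound 30 min at 37 °C in buffer with 0.1% BSA and 0.5 mM IBMX; cAMP measured by HTRF against a cAMP standard curve. 10 nM human GLP-1 set as 100%; relative EC50 from 4-parameter fit.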

Chain of (Homo sapiens, UniProt P43220) (P43220 24-463): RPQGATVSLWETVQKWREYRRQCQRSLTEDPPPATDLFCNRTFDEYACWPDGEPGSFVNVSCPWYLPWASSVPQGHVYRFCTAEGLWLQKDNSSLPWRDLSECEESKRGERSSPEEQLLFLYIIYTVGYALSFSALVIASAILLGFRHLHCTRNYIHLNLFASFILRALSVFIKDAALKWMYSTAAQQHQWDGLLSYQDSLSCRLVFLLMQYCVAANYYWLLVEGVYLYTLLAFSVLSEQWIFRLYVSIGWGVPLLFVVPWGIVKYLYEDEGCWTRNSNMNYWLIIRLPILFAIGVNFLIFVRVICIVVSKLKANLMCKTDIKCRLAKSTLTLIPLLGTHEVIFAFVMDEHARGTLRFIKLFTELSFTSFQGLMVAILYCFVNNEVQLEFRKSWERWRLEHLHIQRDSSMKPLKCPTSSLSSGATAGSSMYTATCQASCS

Row | SMILES | EC50 [nM]
1 | C[C@H]1c2c(nn(-c3ccc(F)c(C4CC4)c3)c2-n2ccn(-c3ccc4c(cnn4C)c3F)c2=O)CCN1C(=O)c1cc2nc([C@@H]3CCOC(C)(C)C3)ccn2c1C1(c2noc(=O)[nH]2)CC1 (single isomer, unassigned) [Compound 102] | < 20
2 | Cc1cc(-n2nc3c(c2-n2ccn(-c4ccc5c(cnn5C)c4F)c2=O)[C@H](C)N(C(=O)c2cn4cc(N5CCOC(C)(C)C5)ccc4c2C2(c4noc(=O)[nH]4)CC2)CC3)cc(C)c1F [Compound 1, (S)-3-(1-(6-(2,2-dimethylmorpholino)-2-(3-(3-(4-fluoro-1-methyl-1H-indazol-5-yl)-2-oxo-2,3-dihydro-1H-imidazol-1-yl)-2-(4-fluoro-3,5-dimethylphenyl)-4-methyl-4,5,6,7-tetrahydro-2H-pyrazolo[4,3-c]pyridine-5-carbonyl)indolizin-1-yl)cyclopropyl)-1,2,4-oxadiazol-5(4H)-one] | < 20
3 | Cc1cc(-n2nc3c(c2-n2ccn(-c4ccc5c(cnn5C)c4F)c2=O)[C@H](C)N(C(=O)c2cn4cc(-c5ccnc(C(F)(F)F)c5)ccc4c2C2(c4noc(=O)[nH]4)CC2)CC3)cc(C)c1F [Compound 2, (S)-3-(1-(2-(3-(3-(4-fluoro-1-methyl-1H-indazol-5-yl)-2-oxo-2,3-dihydro-1H-imidazol-1-yl)-2-(4-fluoro-3,5-dimethylphenyl)-4-methyl-4,5,6,7-tetrahydro-2H-pyrazolo[4,3-c]pyridine-5-carbonyl)-6-(2-(trifluoromethyl)pyridin-4-yl)indolizin-1-yl)cyclopropyl)-1,2,4-oxadiazol-5(4H)-one] | < 20
4 | Cc1cc(-n2nc3c(c2-n2ccn(-c4ccc5c(cnn5C)c4F)c2=O)[C@H](C)N(C(=O)c2cn4cc(-c5ccnc(C(F)(F)F)c5)ccc4c2Cc2noc(=O)[nH]2)CC3)cc(C)c1F [Compound 15, (S)-3-((2-(3-(3-(4-fluoro-1-methyl-1H-indazol-5-yl)-2-oxo-2,3-dihydro-1H-imidazol-1-yl)-2-(4-fluoro-3,5-dimethylphenyl)-4-methyl-4,5,6,7-tetrahydro-2H-pyrazolo[4,3-c]pyridine-5-carbonyl)-6-(2-(trifluoromethyl)pyridin-4-yl)indolizin-1-yl)methyl)-1,2,4-oxadiazol-5(4H)-one] | < 20
5 | Cc1cc(-n2nc3c(c2-n2ccn(-c4ccc5c(cnn5C)c4F)c2=O)CN(C(=O)c2cc4cc(C5CCOCC5)ccc4n2-c2ccccc2-c2noc(=O)[nH]2)CC3)cc(C)c1F [Compound 37, 3-(2-(2-(3-(3-(4-fluoro-1-methyl-1H-indazol-5-yl)-2-oxo-2,3-dihydro-1H-imidazol-1-yl)-2-(4-fluoro-3,5-dimethylphenyl)-4,5,6,7-tetrahydro-2H-pyrazolo[4,3-c]pyridine-5-carbonyl)-5-(tetrahydro-2H-pyran-4-yl)-1H-indol-1-yl)phenyl)-1,2,4-oxadiazol-5(4H)-one] | > 100
6 | Cn1ncc2c(F)c(-n3ccn(-c4c(-c5ccc(F)cc5)nn5c4CN(C(=O)c4cc6cc(C7CCOCC7)ccc6n4-c4ccccc4C(=O)O)CC5)c3=O)ccc21 [Compound 55, 2-(2-(3-(3-(4-fluoro-1-methyl-1H-indazol-5-yl)-2-oxo-2,3-dihydro-1H-imidazol-1-yl)-2-(4-fluorophenyl)-4,5,6,7-tetrahydropyrazolo[1,5-a]pyrazine-5-carbonyl)-5-(tetrahydro-2H-pyran-4-yl)-1H-indol-1-yl)benzoic acid] | > 100
7 | Cc1cc(-n2nc3c(c2-n2ccn(-c4ccc5c(cnn5C)c4F)c2=O)[C@H](C)N(C(=O)c2cc4cc(C5CCOCC5)ccc4n2-c2cccc(C(=O)O)c2)CC3)cc(C)c1F [Compound 56, (S)-3-(2-(3-(3-(4-fluoro-1-methyl-1H-indazol-5-yl)-2-oxo-2,3-dihydro-1H-imidazol-1-yl)-2-(4-fluoro-3,5-dimethylphenyl)-4-methyl-4,5,6,7-tetrahydro-2H-pyrazolo[4,3-c]pyridine-5-carbonyl)-5-(tetrahydro-2H-pyran-4-yl)-1H-indol-1-yl)benzoic acid] | < 20
